From patent US10189839B2, “Tricyclic imidazole compounds as inhibitors of tryptophan hydroxylase” (ACTELION PHARMACEUTICALS LTD, priority 2013, dated 2019)

Target: T1, full length human TPH1 (Homo sapiens, UniProt P17752)
T1 construct: To generate the enzyme, full length human TPH1 is cloned into the plasmid pET20b(+); made in house; host or cells: E. coli
T1 sequence (P17752 1-444): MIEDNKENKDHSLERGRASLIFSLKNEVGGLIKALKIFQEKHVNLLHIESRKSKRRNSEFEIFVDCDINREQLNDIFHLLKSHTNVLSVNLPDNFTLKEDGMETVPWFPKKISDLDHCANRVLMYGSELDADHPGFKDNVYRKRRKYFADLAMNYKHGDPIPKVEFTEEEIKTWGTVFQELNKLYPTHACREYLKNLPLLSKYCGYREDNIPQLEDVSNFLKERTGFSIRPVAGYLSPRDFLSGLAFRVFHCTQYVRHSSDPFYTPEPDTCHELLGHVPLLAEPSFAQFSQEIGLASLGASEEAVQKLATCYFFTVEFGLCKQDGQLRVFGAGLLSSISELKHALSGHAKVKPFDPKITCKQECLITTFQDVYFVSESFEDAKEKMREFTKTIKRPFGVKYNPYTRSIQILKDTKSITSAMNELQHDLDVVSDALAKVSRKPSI
Assay: Biochemical in vitro assay using fluorescence readout (TPH1 enzyme activity)
Conditions: Table 1, mean where determined several times
Source text: Inhibitory activities on tryptophan hydroxylase 1 have been measured for each example compound using the following procedure:
Biochemical In Vitro Assay Using Fluorescence Readout
To generate the enzyme, full length human TPH1 is cloned into the plasmid pET20b(+) (Novagen) and expressed in E. coli. The bacterial cells are ruptured by sonication on ice and the lysate is cleared by centrifugation. The resulting protein in the pellet is re-extracted and TPH1 is purified from the obtained lysate by affinity chromatography using a pterin cosubstrate analog immobilized to the resin of the column. The protein is further purified by size exclusion chromatography to remove protein aggregates. The activity of TPH1 is determined by using a fluorescence assay. The enzyme activity assay is carried out at 15° C. with atmosphere oxygen for the duration of 60 minutes in a volume of 64 μl. The reaction is carried out in a 0.1M Tris-HCl buffer, adjusted to pH 7.6, containing 1 mM DTT, 0.2 mg/ml catalase, 100 μM (±)-6-methyl-5,6,7,8-tetrahydropterine dihydrochloride, 40 μM L-tryptophan, and 40-80 nM of TPH1. The reaction is started by bringing together L-tryptophan with all the other reaction substituents and stopped by quenching with perchloric acid (HClO4). The amount of 5-hydroxy-L-tryptophan produced during the enzymatic reaction is determined by fluorescence readout. Fluorescence, as determined at 540 nm when excited at 300 nm wavelength, increases proportionally to the 5-hydroxy-L-tryptophan formed. Compounds are prepared as 10 mM stock solution in DMSO, then diluted in 384-well plates using DMSO followed by a transfer of the dilutions into the assay plate. Fluorescence is measured for each well and the fluorescence at 540 nm wavelength is compared to the fluorescence of the vehicle in place of compound. Inhibitory activities of example compounds with respect to the TPH1 protein are determined by calculating the IC50 value (the concentration of compound needed to inhibit 50% of the enzyme activity). The calculated IC50 values may fluctuate depending on the daily biochemical assay performance. Fluctuations of this kind are known to those skilled in the art. In the case where IC50 values have been determined several times for the same compound, the mean is given.

SMILES | IC50 [nM]
CN(C)c1ncc(C2c3c(nc4n3CCNC4)CCN2C(=O)COc2ccc(N3CCOCC3)nc2Cl)s1 (centres unmarked) [Example 5.6.1, 2-((2-chloro-6-morpholinopyridin-3-yl)oxy)-1-(1-(2-(dimethylamino)thiazol-5-yl)-3,4,6,7,8,9-hexahydropyrido[4′,3′:4,5]imidazo[1,2-a]pyrazin-2(1H)-yl)ethanone] | 415
CCc1nc(C(=O)NC2CC2)ccc1OCC(=O)N1CCc2nc3n(c2C1c1ccc(C)c(F)c1F)CCCC3 (centres unmarked) [Example 1.9.10, N-cyclopropyl-5-(2-(1-(2,3-difluoro-4-methylphenyl)-3,4,6,7,8,9-hexahydroimidazo[1,2-a:5,4-c′]dipyridin-2(1H)-yl)-2-oxoethoxy)-6-ethylpicolinamide] | 9
CCc1nc(NS(C)(=O)=O)ncc1OCC(=O)N1CCc2nc3n(c2C1c1sc(C)nc1C)CCCC3 (centres unmarked) [Example 1.10.18, N-(5-(2-(1-(2,4-dimethylthiazol-5-yl)-3,4,6,7,8,9-hexahydroimidazo[1,2-a:5,4-c′]dipyridin-2(1H)-yl)-2-oxoethoxy)-4-ethylpyrimidin-2-yl)methanesulfonamide] | 121
CN(C)c1ccc(OCC(=O)N2CCc3nc4n(c3C2c2ccc(Cl)cc2F)CCCC4)c(Cl)n1 (centres unmarked) [Example 1.1.21, 1-(1-(4-chloro-2-fluorophenyl)-3,4,6,7,8,9-hexahydroimidazo[1,2-a:5,4-c′]dipyridin-2(1H)-yl)-2-((2-chloro-6-(dimethylamino)pyridin-3-yl)oxy)ethan-1-one] | 13
CS(=O)(=O)Nc1ccc(OCC(=O)N2CCc3nc4n(c3C2c2ccc(Cl)cc2F)CCS4)c(Cl)n1 (centres unmarked) [Example 4.1.1, N-(6-chloro-5-(2-(5-(4-chloro-2-fluorophenyl)-2,3,7,8-tetrahydrothiazolo[2′,3′:2,3]imidazo[4,5-c]pyridin-6(5H)-yl)-2-oxoethoxy)pyridin-2-yl)methanesulfonamide] | 19
CCc1nc(C(=O)NC2CC2)ccc1OCC(=O)N1CCc2nc3n(c2[C@@H]1c1sc(C)nc1C)CCC3 [Example 2.4.3, (R)-N-cyclopropyl-5-(2-(1-(2,4-dimethylthiazol-5-yl)-3,4,7,8-tetrahydro-1H-pyrrolo[2′,1′:2,3]imidazo[4,5-c]pyridin-2(6H)-yl)-2-oxoethoxy)-6-ethylpicolinamide] | 9
CCc1nc(N2CCCS2(=O)=O)ccc1OCC(=O)N1CCc2nc3n(c2C1c1sc(C)nc1C)CCS3 (centres unmarked) [Example 4.5.2, 1-(5-(2,4-dimethylthiazol-5-yl)-2,3,7,8-tetrahydrothiazolo[2′,3′:2,3]imidazo[4,5-c]pyridin-6(5H)-yl)-2-((6-(1,1-dioxidoisothiazolidin-2-yl)-2-ethylpyridin-3-yl)oxy)ethanone] | 10
CS(=O)(=O)Nc1ccc(OC2(C(=O)N3CCc4nc5n(c4C3c3ccc(Cl)cc3F)CCCC5)CC2)c(Cl)n1 (centres unmarked) [Example 1.1.19, N-(6-chloro-5-(1-(1-(4-chloro-2-fluorophenyl)-1,2,3,4,6,7,8,9-octahydroimidazo[1,2-a:5,4-c′]dipyridine-2-carbonyl)cyclopropoxy)pyridin-2-yl)methanesulfonamide] | 58
CCc1nc(NS(C)(=O)=O)ccc1OCC(=O)N1CCc2nc3n(c2C1c1scnc1C)CCCC3 (centres unmarked) [Example 1.13.1, N-(6-ethyl-5-(2-(1-(4-methylthiazol-5-yl)-3,4,6,7,8,9-hexahydroimidazo[1,2-a:5,4-c′]dipyridin-2(1H)-yl)-2-oxoethoxy)pyridin-2-yl)methanesulfonamide207] | 44
CN(C)C(=O)c1ccc(OC2(C(=O)N3CCc4nc5n(c4C3c3ccc(Cl)cc3F)CCCC5)CC2)c(Cl)n1 (centres unmarked) [Example 1.1.26, 6-chloro-5-(1-(1-(4-chloro-2-fluorophenyl)-1,2,3,4,6,7,8,9-octahydroimidazo[1,2-a:5,4-c′]dipyridine-2-carbonyl)cyclopropoxy)-N,N-dimethylpicolinamide] | 51
CN(CC(F)(F)F)c1ccc(OCC(=O)N2CCc3nc4n(c3C2c2ccc(Cl)cc2F)CCCC4)c(Cl)n1 (centres unmarked) [Example 1.1.23, 1-(1-(4-chloro-2-fluorophenyl)-3,4,6,7,8,9-hexahydroimidazo[1,2-a:5,4-c′]dipyridin-2(1H)-yl)-2-((2-chloro-6-(methyl(2,2,2-trifluoroethyl)amino)pyridin-3-yl)oxy)ethan-1-one] | 9

Next, values leading:

IC50 [nM] | SMILES
6 | CCc1nc(NS(C)(=O)=O)ccc1OCC(=O)N1CCc2nc3n(c2C1c1ccc(C2CC2)cc1F)CCS3 (centres unmarked) [Example 4.3.1, N-(5-(2-(5-(4-cyclopropyl-2-fluorophenyl)-2,3,7,8-tetrahydrothiazolo[2′,3′:2,3]imidazo[4,5-c]pyridin-6(5H)-yl)-2-oxoethoxy)-6-ethylpyridin-2-yl)methanesulfonamide]
12 | O=C(NC1CC1)c1ccc(OCC(=O)N2CCc3nc4n(c3[C@@H]2c2ccc(Cl)cc2F)CCCC4)c(Cl)n1 [Example 1.1.16, (S)-6-chloro-5-(2-(1-(4-chloro-2-fluorophenyl)-3,4,6,7,8,9-hexahydroimidazo[1,2-a:5,4-c′]dipyridin-2(1H)-yl)-2-oxoethoxy)-N-cyclopropylpicolinamide]
92 | N#Cc1ccc(OCC(=O)N2CCc3nc4n(c3C2c2ccc(C3CC3)cc2F)CCNC4)c(Cl)c1 (centres unmarked) [Example 5.2.9, 3-chloro-4-(2-(1-(4-cyclopropyl-2-fluorophenyl)-3,4,6,7,8,9-hexahydropyrido[4′,3′:4,5]imidazo[1,2-a]pyrazin-2(1H)-yl)-2-oxoethoxy)benzonitrile]
20 | O=C(COc1ccc(N2CCOCC2)nc1Cl)N1CCc2nc3n(c2C1c1ncc(C2CC2)cc1F)CCNC3 (centres unmarked) [Example 5.4.3, 2-((2-chloro-6-morpholinopyridin-3-yl)oxy)-1-(1-(5-cyclopropyl-3-fluoropyridin-2-yl)-3,4,6,7,8,9-hexahydropyrido[4′,3′:4,5]imidazo[1,2-a]pyrazin-2(1H)-yl)ethanone]
27 | CC(=O)N1CCn2c(nc3c2C(c2sc(C(=O)N(C)C)cc2F)N(C(=O)COc2ccc(C(=O)N(C)C)nc2Cl)CC3)C1 (centres unmarked) [Example 5.7.1, 5-(2-(7-acetyl-1-(5-(dimethylcarbamoyl)-3-fluorothiophen-2-yl)-3,4,6,7,8,9-hexahydropyrido[4′,3′:4,5]imidazo[1,2-a]pyrazin-2(1H)-yl)-2-oxoethoxy)-6-chloro-N,N-dimethylpicolinamide]
25 | CCc1nc(NS(C)(=O)=O)ncc1OCC(=O)N1CCc2nc3n(c2C1c1ccc(C2CC2)cc1F)CCS3 (centres unmarked) [Example 4.3.4, N-(5-(2-(5-(4-cyclopropyl-2-fluorophenyl)-2,3,7,8-tetrahydrothiazolo[2′,3′:2,3]imidazo[4,5-c]pyridin-6(5H)-yl)-2-oxoethoxy)-4-ethylpyrimidin-2-yl)methanesulfonamide]
25 | CC(=O)N1CCn2c(nc3c2C(c2ccc(C4CC4)cc2F)N(C(=O)COc2cc(F)cnc2Cl)CC3)C1 (centres unmarked) [Example 5.2.16, 1-(7-acetyl-1-(4-cyclopropyl-2-fluorophenyl)-3,4,6,7,8,9-hexahydropyrido[4′,3′:4,5]imidazo[1,2-a]pyrazin-2(1H)-yl)-2-((2-chloro-5-fluoropyridin-3-yl)oxy)ethanone]
24 | O=C(NC1CC1)c1ccc(OCC(=O)N2CCc3nc4n(c3C2c2ccc(C3CC3)cc2F)CCCC4)c(Cl)n1 (centres unmarked) [Example 1.8.5, 6-chloro-N-cyclopropyl-5-(2-(1-(4-cyclopropyl-2-fluorophenyl)-3,4,6,7,8,9-hexahydroimidazo[1,2-a:5,4-c′]dipyridin-2(1H)-yl)-2-oxoethoxy)picolinamide]

Same assay, conditions: Table 2

IC50 [nM] | SMILES
341 | CC(C)(C)OC(=O)N1CCn2c(nc3c2C(c2cc(C(=O)NC#N)cs2)N(C(=O)COc2ccc(N4CCOCC4)nc2Cl)CC3)C1 (centres unmarked) [Example 5.14.1, Tert-butyl 2-(2-((2-chloro-6-morpholinopyridin-3-yl)oxy)acetyl)-1-(4-(cyanocarbamoyl)thiophen-2-yl)-1,2,3,4,8,9-hexahydropyrido[4′,3′:4,5]imidazo[1,2-a]pyrazine-7(6H)-carboxylate]
